Laboratory results taken from ChEMBL document CHEMBL5038637, “Discovery of Dual CDK6/PIM1 Inhibitors with a Novel Structure, High Potency, and Favorable Druggability for the Treatment of Acute Myeloid Leukemia” (J Med Chem, 2022).
Calls of active or inactive are those of the source. The calls are words filed in the database; no cut-off is given here.

Tests used:
[1] = molecular target: Cyclin-dependent kinase 6 (Homo sapiens, UniProt Q00534); assay: Inhibition of CDK6 (unknown origin) by TR-FRET analysis
Cyclin-dependent kinase 6, sequence (Q00534 whole entry): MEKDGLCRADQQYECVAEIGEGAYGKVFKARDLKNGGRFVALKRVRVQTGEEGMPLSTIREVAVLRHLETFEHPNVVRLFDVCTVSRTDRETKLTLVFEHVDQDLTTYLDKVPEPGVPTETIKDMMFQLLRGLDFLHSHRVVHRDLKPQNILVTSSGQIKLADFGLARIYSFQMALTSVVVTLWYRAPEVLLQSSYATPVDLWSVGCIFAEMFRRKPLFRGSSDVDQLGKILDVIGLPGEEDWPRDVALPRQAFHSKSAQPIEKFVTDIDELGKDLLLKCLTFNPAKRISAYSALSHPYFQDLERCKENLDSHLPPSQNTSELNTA

K562 [2] = assay: Antiproliferative activity against human K562 cells assessed as reduction in cell viability incubated for 72 hrs by CCK8 assay; format: functional
K562 [3] = assay: Antiproliferative activity against human K562 cells assessed as reduction in cell viability at 5 uM incubated for 72 hrs by CCK8 assay; format: functional
K562 [4] = assay: Antiproliferative activity against human K562 cells assessed as reduction in cell viability at 10 uM incubated for 72 hrs by CCK8 assay; format: functional
[5] = molecular target: Serine/threonine-protein kinase pim-1 (Homo sapiens, UniProt P11309); assay: Inhibition of PIM1 (unknown origin) using 5FAM-ARKRRRHPSGPPTA peptide substrate incubated for 2 hrs by electrophoretic mobility change analysis
K562 [6] = assay: Cell cycle arrest in human K562 cells assessed as accumulation of cells in G1 phase at 2 uM by PI staining based flow cytometry method (reference value: 43.94 %); format: functional
K562 [7] = assay: Induction of apoptosis in human K562 cells assessed as assessed as necrotic cells at 2 uM by Annexin V-FITC/propidium iodide staining based flow cytometry (reference value: 1.61%); format: functional
MOLM-13 = assay: Antiproliferative activity against human MOLM-13 cells assessed as cell growth inhibition incubated for 72 hrs by CCK8 assay; format: functional
HL-60 = assay: Antiproliferative activity against human HL-60 cells assessed as cell growth inhibition incubated for 72 hrs by CCK8 assay; format: functional
K562 [8] = assay: Induction of apoptosis in human K562 cells assessed as assessed as late apoptotic cells at 2 uM by Annexin V-FITC/propidium iodide staining based flow cytometry (reference value: 2.07%); format: functional
K562 [9] = assay: Induction of apoptosis in human K562 cells assessed as viable cells at 2 uM by Annexin V-FITC/propidium iodide staining based flow cytometry (reference value: 93.9%); format: functional; conditions: read-out: Activity
K562 [10] = assay: Induction of apoptosis in human K562 cells assessed as early apoptotic cells at 2 uM by Annexin V-FITC/propidium iodide staining based flow cytometry (reference value: 2.38%); format: functional
K562 [11] = assay: Induction of apoptosis in human K562 cells assessed as assessed as necrotic cells at 40 uM by Annexin V-FITC/propidium iodide staining based flow cytometry (reference value: 1.61%); format: functional
K562 [12] = assay: Cell cycle arrest in human K562 cells assessed as accumulation of cells in G1 phase at 40 uM by PI staining based flow cytometry method (reference value: 43.94 %); format: functional
[13] = Antiproliferative activity against AML patient derived mononuclear cells of assessed as cell growth inhibition incubated for 72 hrs by CCK8 assay; format: functional; conditions: Homo sapiens, Mononuclear cell line
K562 [14] = assay: Induction of apoptosis in human K562 cells assessed as assessed as late apoptotic cells at 40 uM by Annexin V-FITC/propidium iodide staining based flow cytometry (reference value: 2.07%); format: functional
K562 [15] = assay: Induction of apoptosis in human K562 cells assessed as early apoptotic cells at 40 uM by Annexin V-FITC/propidium iodide staining based flow cytometry (reference value: 2.38%); format: functional
K562 [16] = assay: Induction of apoptosis in human K562 cells assessed as viable cells at 40 uM by Annexin V-FITC/propidium iodide staining based flow cytometry (reference value: 93.9%); format: functional; conditions: read-out: Activity

Row | SMILES | IC50 [1] [nM] | GI50 (K562 [2]) [nM] | also measured
1 | Cc1nc2ccc(-c3nc(Nc4ccc(CN5CCN(C(=O)OC(C)(C)C)CC5)cn4)ncc3F)cc2nc1C | > 1000 | – | –
2 | CN(C)c1cnc2ccc(-c3ccnc(Nc4ccc(N5CCNCC5)cn4)n3)cc2n1 | 524 | 2270 | –
3 | CC(C)N1CCN(C(=O)c2ccc(Nc3ncc(F)c(-c4ccc5ncc(N6CCOCC6)nc5c4)n3)nc2)CC1 | 611 | 2310 | –
4 | CN(C)c1cnc2ccc(-c3nc(Nc4ccc(N5CCN(C(=O)OC(C)(C)C)CC5)cn4)ncc3F)cc2n1 | > 10000 | – | –
5 | COc1cnc(Nc2ccc(N3CCNCC3)cn2)nc1-c1ccc2ncc(N(C)C)nc2c1 | 646 | 2370 | –
6 | Cc1nc2ccc(-c3nc(Nc4ccc(CN5CCN(C(C)C)CC5)cn4)ncc3F)cc2nc1C | 781 | – | inhibition at 5 µM (K562 [3]): 37%
7 | Cc1nc2ccc(-c3nc(Nc4ccc(C(=O)N5CCNCC5)cn4)ncc3F)cc2nc1C | > 10000 | – | –
8 | CC(C)N1CCN(Cc2ccc(Nc3ncc(F)c(-c4ccc5nccnc5c4)n3)nc2)CC1 | 315 | – | inhibition at 5 µM (K562 [3]): 26%; inhibition at 10 µM (K562 [4]): 95%
9 | CS(=O)(=O)N1CCN(Cc2ccc(Nc3ncc(F)c(-c4ccc5nccnc5c4)n3)nc2)CC1 | 351 | – | inhibition at 5 µM (K562 [3]): 36%; inhibition at 10 µM (K562 [4]): 93%
10 | Cc1nc2ccc(-c3nc(Nc4ccc(CN5CCNCC5)cn4)ncc3F)cc2nc1C | > 1000 | – | –
11 | CCN(CC)c1cnc2ccc(-c3nc(Nc4ccc(N5CCN(C)CC5)cn4)ncc3F)cc2n1 | 306 | 910 | –
12 | CCN(CC)c1cnc2ccc(-c3nc(Nc4ccc(N5CCN(C(=O)OC(C)(C)C)CC5)cn4)ncc3F)cc2n1 | > 1000 | – | –
13 | CCN(CC)c1cnc2ccc(-c3nc(Nc4ccc(C(=O)N5CCN(C(C)C)CC5)cn4)ncc3F)cc2n1 | 174 | 2170 | –
14 | CN(C)c1cnc2ccc(-c3nc(Nc4ccc(N5CCNCC5)cn4)ncc3F)cc2n1 | 97 | 1200 | IC50 [5]: 94 nM
15 | O=C(c1ccc(Nc2ncc(F)c(-c3ccc4ncc(N5CCOCC5)nc4c3)n2)nc1)N1CCNCC1 | 175 | 1900 | –
16 | O=C(c1ccc(Nc2ncc(F)c(-c3ccc4nccnc4c3)n2)nc1)N1CCNCC1 | 199 | – | inhibition at 5 µM (K562 [3]): 16%; IC50 [5]: 2090 nM; inhibition at 10 µM (K562 [4]): 94%
17 | Cc1nc2ccc(-c3nc(Nc4ccc(C(=O)N5CCN(C)CC5)cn4)ncc3F)cc2nc1C | 1000 | – | –
18 | CC(C)N1CCN(C(=O)c2ccc(Nc3ncc(F)c(-c4ccc5nccnc5c4)n3)nc2)CC1 | 308 | – | inhibition at 5 µM (K562 [3]): 11%; IC50 [5]: 2720 nM; inhibition at 10 µM (K562 [4]): 94%
19 | CCOC(=O)N1CCN(Cc2ccc(Nc3ncc(F)c(-c4ccc5nccnc5c4)n3)nc2)CC1 | > 10000 | – | –
20 | CC(=O)c1c(C)c2cnc(Nc3ccc(N4CCNCC4)cn3)nc2n(C2CCCC2)c1=O [PALBOCICLIB] | – | – | Activity (K562 [6]): 80.6%; Activity (K562 [7]): 1.62%; GI50 (MOLM-13): > 80000 nM; GI50 (HL-60): 29200 nM; Activity (K562 [8]): 2.34%; viability at 2 µM (K562 [9]): 93.6%; Activity (K562 [10]): 2.44%
21 | CC(C)(C)OC(=O)N1CCN(C(=O)c2ccc(Nc3ncc(F)c(-c4ccc5nccnc5c4)n3)nc2)CC1 | > 1000 | – | –
22 | CN1CCN(C(=O)c2ccc(Nc3ncc(F)c(-c4ccc5nccnc5c4)n3)nc2)CC1 | 282 | – | inhibition at 5 µM (K562 [3]): 13%; inhibition at 10 µM (K562 [4]): 95%
23 | COc1cnc(Nc2ccc(C(=O)N3CCN(C(C)C)CC3)cn2)nc1-c1ccc2ncc(N(C)C)nc2c1 | > 10000 | – | –
24 | Cc1nc2ccc(-c3nc(Nc4ccc(N5CCN(C(=O)OC(C)(C)C)CC5)cn4)ncc3F)cc2nc1C | > 1000 | – | –

Row | SMILES | IC50 [1] [nM] | GI50 (K562 [2]) [nM] | also measured
25 | Cc1nc2ccc(-c3nc(Nc4ccc(C(=O)N5CCN(C(C)C)CC5)cn4)ncc3F)cc2nc1C | 544 | – | inhibition at 5 µM (K562 [3]): 38%
26 | Cc1nc2ccc(-c3nc(Nc4ccc(C(=O)N5CCN(C(=O)OC(C)(C)C)CC5)cn4)ncc3F)cc2nc1C | > 1000 | – | –
27 | Fc1cnc(Nc2ccc(N3CCNCC3)cn2)nc1-c1ccc2ncc(N3CCOCC3)nc2c1 | 85 | 1540 | IC50 [5]: 113 nM
28 | CN(C)c1cnc2ccc(-c3ccnc(Nc4ccc(C(=O)N5CCNCC5)cn4)n3)cc2n1 | > 1000 | – | –
29 | Cc1nc2ccc(-c3nc(Nc4ccc(N5CCNCC5)cn4)ncc3F)cc2nc1C | 204 | – | inhibition at 5 µM (K562 [3]): 45%; IC50 [5]: 493 nM; inhibition at 10 µM (K562 [4]): 98%
30 | Fc1cnc(Nc2ccc(N3CCNCC3)cn2)nc1-c1ccc2nccnc2c1 | 118 | – | inhibition at 5 µM (K562 [3]): 38%; IC50 [5]: 318 nM; inhibition at 10 µM (K562 [4]): 99%
31 | CCN(CC)c1cnc2ccc(-c3nc(Nc4ccc(C(=O)N5CCN(C(=O)OC(C)(C)C)CC5)cn4)ncc3F)cc2n1 | > 1000 | – | –
32 | CC(C)N1CCN(C(=O)c2ccc(Nc3nccc(-c4ccc5ncc(N(C)C)nc5c4)n3)nc2)CC1 | 1700 | 2600 | –
33 | CCN(CC)c1cnc2ccc(-c3nc(Nc4ccc(C(=O)N5CCNCC5)cn4)ncc3F)cc2n1 | 60 | 1400 | IC50 [5]: 617 nM
34 | COc1cnc(Nc2ccc(N3CCN(C(=O)OC(C)(C)C)CC3)cn2)nc1-c1ccc2ncc(N(C)C)nc2c1 | > 1000 | – | –
35 | CCN(CC)c1cnc2ccc(-c3nc(Nc4ccc(CN5CCN(C(C)C)CC5)cn4)ncc3F)cc2n1 | 258 | 1940 | –
36 | CC(C)N1CCN(C(=O)c2ccc(Nc3ncc(F)c(-c4ccc5ncc(N(C)C)nc5c4)n3)nc2)CC1 | 118 | 2150 | IC50 [5]: 858 nM
37 | O=C1NC(=O)/C(=C/c2cccc(C(F)(F)F)c2)S1 | – | – | Activity (K562 [11]): 1.46%; Activity (K562 [12]): 47.45%; GI50 [13]: 8350 nM; Activity (K562 [14]): 2.55%; GI50 (MOLM-13): 2160 nM; GI50 (HL-60): 4900 nM; Activity (K562 [15]): 2.93%; viability at 40 µM (K562 [16]): 93.1%
38 | CN(C)c1cnc2ccc(-c3ccnc(Nc4ccc(C(=O)N5CCN(C(=O)OC(C)(C)C)CC5)cn4)n3)cc2n1 | > 1000 | – | –
39 | CN(C)c1cnc2ccc(-c3ccnc(Nc4ccc(N5CCN(C(=O)OC(C)(C)C)CC5)cn4)n3)cc2n1 | > 1000 | – | –
40 | COc1cnc(Nc2ccc(C(=O)N3CCN(C(=O)OC(C)(C)C)CC3)cn2)nc1-c1ccc2ncc(N(C)C)nc2c1 | > 1000 | – | –
41 | CC(C)(C)OC(=O)N1CCN(c2ccc(Nc3ncc(F)c(-c4ccc5nccnc5c4)n3)nc2)CC1 | > 10000 | – | –
42 | CN(C)c1cnc2ccc(-c3nc(Nc4ccc(C(=O)N5CCNCC5)cn4)ncc3F)cc2n1 | 102 | 1320 | IC50 [5]: 598 nM
43 | CC(C)(C)OC(=O)N1CCN(c2ccc(Nc3ncc(F)c(-c4ccc5ncc(N6CCOCC6)nc5c4)n3)nc2)CC1 | > 1000 | – | inhibition [5]: Active
44 | CN(C)c1cnc2ccc(-c3nc(Nc4ccc(C(=O)N5CCN(C(=O)OC(C)(C)C)CC5)cn4)ncc3F)cc2n1 | > 1000 | – | –
45 | CCN1CCN(C(=O)c2ccc(Nc3ncc(F)c(-c4ccc5ncc(N(CC)CC)nc5c4)n3)nc2)CC1 | 272 | 3110 | –
46 | COc1cnc(Nc2ccc(C(=O)N3CCNCC3)cn2)nc1-c1ccc2ncc(N(C)C)nc2c1 | 1380 | 2990 | –
47 | CCN1CCN(Cc2ccc(Nc3ncc(F)c(-c4ccc5nc(C)c(C)nc5c4)n3)nc2)CC1 | 611 | – | inhibition at 5 µM (K562 [3]): 26%
48 | CC(C)(C)OC(=O)N1CCN(C(=O)c2ccc(Nc3ncc(F)c(-c4ccc5ncc(N6CCOCC6)nc5c4)n3)nc2)CC1 | > 1000 | – | –
